Measurements reported in patent US20240270809A1, “ORAL GLP RECEPTOR AGONISTS” (priority 2020, published 2024).
Positions of bridges follow the written chain, without caps; N, C: chain ends. Non-standard residues stand in square brackets, D forms with d. Residues, ends and D or L forms follow the SMILES beside them. *: point of attachment. Malonyl(2,2-Me2,histaminyl) = CC(C)(C(=O)NCCc1cnc[nH]1)C(=O)*; Ala(1H-tetrazol-5-yl) = N[C@@H](Cc1nnn[nH]1)C(=O)O; αMePhe(2-F) = C[C@](N)(Cc1ccccc1F)C(=O)O; αMeL = CC(C)C[C@](C)(N)C(=O)O; Nle = CCCC[C@H](N)C(=O)O; Aib = CC(C)(N)C(=O)O

Assays:
human GLP2 receptor = biological target: T1, human GLP2 receptor (Homo sapiens, UniProt O95838); assay: cAMP accumulation assay, functional agonism of human GLP2 receptor; type: cell-based; conditions: HEK cells infected with human GLP2 receptor BacMam virus, HTRF cAMP; for Emax: HEK293, read-out: Human GLP-2R agonist cAMP Emax; for EC50: read-out: Human GLP-2R agonist cAMP pEC50 (converted)
T1 construct: expressed in transfected cells; host or cells: HEK cells, BacMam virus transduction
T1 sequence (O95838 1-553): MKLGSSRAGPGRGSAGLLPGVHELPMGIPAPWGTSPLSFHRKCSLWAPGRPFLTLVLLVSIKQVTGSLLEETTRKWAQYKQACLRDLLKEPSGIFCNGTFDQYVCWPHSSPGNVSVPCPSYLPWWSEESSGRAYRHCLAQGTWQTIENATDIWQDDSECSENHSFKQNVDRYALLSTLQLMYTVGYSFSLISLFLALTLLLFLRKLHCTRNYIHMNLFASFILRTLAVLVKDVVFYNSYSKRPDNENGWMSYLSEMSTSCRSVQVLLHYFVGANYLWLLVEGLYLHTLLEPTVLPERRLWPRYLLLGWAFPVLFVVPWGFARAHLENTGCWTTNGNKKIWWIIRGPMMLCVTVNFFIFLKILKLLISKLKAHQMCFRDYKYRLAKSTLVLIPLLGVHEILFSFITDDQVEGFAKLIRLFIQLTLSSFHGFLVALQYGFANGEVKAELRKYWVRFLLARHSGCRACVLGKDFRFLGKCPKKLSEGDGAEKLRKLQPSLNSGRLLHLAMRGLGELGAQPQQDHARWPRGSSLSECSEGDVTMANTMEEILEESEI
Outline: (§1)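 cAMP read by HTRF detection reagents in lysis buffer following 45 min agonist exposure at 37 °C. Cells: frozen HEK transduced for 24 h with GLP1 or GLP2 receptor BacMam, suspended in HBSS plus 0.5 mM IBMX.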

human GLP1 receptor = biological target: T2, human GLP1 receptor (Homo sapiens, UniProt P43220); assay: cAMP accumulation assay, functional agonism of human GLP1 receptor; type: cell-based; conditions: HEK cells infected with human GLP1 receptor BacMam virus, HTRF cAMP; for Emax: HEK293, read-out: Human GLP-1R agonist cAMP Emax; for EC50: read-out: Human GLP-1R agonist cAMP pEC50 (converted)
T2 construct: expressed in transfected cells; host or cells: HEK cells, BacMam virus transduction
Outline: as §1

mouse GLP2 receptor = biological target: T3, mouse GLP2 receptor (Mus musculus, UniProt Q5IXF8); assay: cAMP accumulation assay, functional agonism of mouse GLP2 receptor; type: cell-based; conditions: HEK cells transiently transfected with mouse GLP2 receptor, HTRF cAMP; for Emax: HEK293, read-out: Mouse GLP-2R agonist cAMP Emax; for EC50: read-out: Mouse GLP-2R agonist cAMP pEC50 (converted)
T3 construct: expressed in transfected cells; host or cells: HEK cells, transient transfection with GeneJuice
T3 sequence (Q5IXF8 1-512): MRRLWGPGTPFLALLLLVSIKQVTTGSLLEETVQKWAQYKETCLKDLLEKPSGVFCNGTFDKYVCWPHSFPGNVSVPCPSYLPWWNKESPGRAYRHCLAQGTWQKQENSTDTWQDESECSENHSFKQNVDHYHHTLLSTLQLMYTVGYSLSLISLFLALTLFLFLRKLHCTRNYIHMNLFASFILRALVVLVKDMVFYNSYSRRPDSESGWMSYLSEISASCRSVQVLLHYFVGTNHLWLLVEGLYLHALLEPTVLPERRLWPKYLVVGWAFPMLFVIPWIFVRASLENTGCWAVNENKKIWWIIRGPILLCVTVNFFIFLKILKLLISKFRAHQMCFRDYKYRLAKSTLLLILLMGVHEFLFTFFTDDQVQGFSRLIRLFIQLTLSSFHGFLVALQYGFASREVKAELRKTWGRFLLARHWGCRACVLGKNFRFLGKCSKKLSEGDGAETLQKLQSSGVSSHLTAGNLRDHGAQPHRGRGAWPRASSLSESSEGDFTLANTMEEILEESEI
Outline: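 pEC50 values come from four-parameter fits of HTRF cAMP signal, read after lysis and 1 h RT incubation. Compounds were incubated 45 min at 37 °C with previously frozen, transiently transfected HEK cells (8000/well) in HBSS containing 0.5 mM IBMX.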

[1] = Stability of peptides in Fasted-State Simulated Intestinal Fluid (FaSSIF); type: in vitro ADME; conditions: FaSSIF with 10 mg/ml pancreatin; t=30 mins, 37° C., pH 6.5, 10 mg/ml pancreatin
Method: Stability of peptides was tested in Fasted-State Simulated Intestinal Fluid (FaSSIF) prepared according to manufacturer's protocol (Biorelevant, art.no. FFF01, pH 6.5). […] FaSSIF was pre-incubated for 15 min at 37° C. and spiked with test and reference item working solutions. Experiments were conducted in duplicate in a non-serial manner. The total incubation volume per replicate was 150 μl. Sampling time points for test items were 0, 0.5, 2, 5, 10, 15 and 30 min. All samples and calibration standards (prepared in FaSSIF) were precipitated by addition of 300 μl precipitant (ACN / 2% acetic acid / 0.2% HFBA, (precipitation reagent, PR)) containing internal standard (ISTD) to 150 μl sample. After incubation for 1 h at room temperature all samples were centrifuged for 10 min at 2,200×g (room temperature).

[2] = Stability of peptides in Fasted-State Simulated Gastric Fluid (FaSSGF); type: in vitro ADME; conditions: FaSSGF with 0.1 mg/ml pepsin; t=30 mins, 37° C., pH 1.6, 0.1 mg/ml pepsin
Method: Stability of peptides was tested in Fasted-State Simulated gastric Fluid (FaSSGF) prepared according to manufacturer's protocol (Biorelevant, art. no. FFF01). […] FaSSGF was pre-incubated for 15 min at 37° C. and spiked with test and reference item working solutions. Experiments were conducted in duplicate in a non-serial manner. The total incubation volume per replicate was 150 μl. […] All samples and calibration standards (prepared in FaSSGF) were precipitated by addition of 300 μl precipitant (ACN / 2% acetic acid / 0.2% HFBA, (precipitation regent, PR)) containing internal standards (ISTD) to 150 μl sample. After incubation for 1 h at room temperature all samples were centrifuged for 10 min at 2,200×g (room temperature).

[3] = Stability of peptides in rat intestinal fluid (ratIF); conditions: Sprague Dawley, undiluted rat small intestinal fluid (ratIF)
Method: Peptides were tested for in vitro stability in native intestinal fluid obtained from the rat small intestine. Rat Sprague Dawley Small Intestinal Fluid (ratIF) (from Biotrend art. no. RSD-SIF-MI-30ML, undiluted) was preincubated for 15 min at 37° C. and spiked with test and reference item working solutions. Experiments were conducted in duplicate in a non-serial manner. The total incubation volume per replicate was 150 μl. […] All samples and calibration standards (prepared in ratIF) were precipitated by addition of 300 μl precipitant (ACN / 2% acetic acid / 0.2% HFBA, (precipitation regent, PR)) containing internal standards (ISTD) to 150 μl sample. After incubation for 1 h at room temperature all samples were centrifuged for 10 min at 2,200×g (room temperature).

T2 sequence (P43220 24-463): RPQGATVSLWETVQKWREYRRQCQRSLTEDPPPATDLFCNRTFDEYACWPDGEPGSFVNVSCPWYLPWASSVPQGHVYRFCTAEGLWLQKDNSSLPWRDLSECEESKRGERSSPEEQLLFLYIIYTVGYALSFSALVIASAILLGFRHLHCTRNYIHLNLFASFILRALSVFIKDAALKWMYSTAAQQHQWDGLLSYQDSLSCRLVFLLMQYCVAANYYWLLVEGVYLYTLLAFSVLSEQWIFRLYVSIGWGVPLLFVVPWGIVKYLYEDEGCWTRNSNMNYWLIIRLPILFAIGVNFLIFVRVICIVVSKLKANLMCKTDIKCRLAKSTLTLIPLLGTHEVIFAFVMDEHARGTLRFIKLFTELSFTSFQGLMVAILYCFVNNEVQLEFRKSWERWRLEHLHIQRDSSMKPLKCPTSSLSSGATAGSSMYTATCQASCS

Row | Emax (human GLP2 receptor) | EC50 (human GLP2 receptor) | Emax (human GLP1 receptor) | EC50 (human GLP1 receptor) | Emax (mouse GLP2 receptor) | EC50 (mouse GLP2 receptor) | remaining at 0.5 h [1] | remaining at 0.5 h [2] | remaining at 0.5 h [3] | SMILES
1 | 105% | 0.00631 nM | 89.9% | 0.501 nM | 99.6% | 1.26 nM | 68.7% | 84.9% | 14.7% | CCCC[C@@H]1NC(=O)[C@H](CCC(=O)O)NC(=O)[C@@H](NC(=O)[C@H](CO)NC(=O)[C@H](Cc2ccccc2)NC(=O)[C@H](CO)NC(=O)[C@@H](C)NC(=O)[C@H](Cc2nn[nH]n2)NC(=O)C(C)(C)C(=O)NCCc2c[nH]cn2)CCCCNC(=O)C[C@@H](C(=O)N[C@H](C(=O)N[C@@H](CC(C)C)C(=O)N[C@@H](CC(=O)O)C(=O)N[C@H]2CCC(=O)NCCCC[C@@H](C(=O)N[C@@H](CC(=O)O)C(=O)N[C@@H](Cc3ccccc3)C(=O)N[C@H](C(=O)N[C@H]3CCCCNC(=O)C[C@@H](C(=O)N[C@H]4CCC(=O)NCCCC[C@@H](C(N)=O)NC(=O)[C@H]([C@@H](C)O)NC(=O)[C@H]([C@@H](C)CC)NC(=O)[C@H](CCCCN)NC4=O)NC(=O)[C@H]([C@@H](C)CC)NC(=O)[C@H](CC(C)C)NC(=O)[C@H](Cc4c[nH]c5ccccc45)NC3=O)[C@@H](C)CC)NC(=O)[C@H](C)NC(=O)[C@H](C)NC(=O)[C@H](CCCCN)NC2=O)[C@@H](C)CC)NC(=O)[C@@H](Cc2ccccc2)NC1=O [Example 40] ({Malonyl(2,2-Me2,histaminyl)}-[Ala(1H-tetrazol-5-yl)][dA]SFSKE[Nle][dF]DILDEKAAKDFIKWLIDEKITK-NH2; lactam 6-10, 14-18, 22-26, 27-31 (inferred); C-terminus assumed)
2 | 101% | 0.00794 nM | 98.7% | 0.0158 nM | 103% | 0.0631 nM | 80.2% | 100% | 100% | CCCC[C@H](NC(=O)[C@H](CCC(=O)O)NC(=O)[C@H](CC(=O)O)NC(=O)[C@H](CO)NC(=O)[C@](C)(Cc1ccccc1F)NC(=O)[C@H](CO)NC(=O)CNC(=O)[C@H](CC(=O)O)NC(=O)C(C)(C)NC(=O)[C@@H](N)Cc1c[nH]cn1)C(=O)N[C@H](Cc1ccccc1)C(=O)N[C@H]1CCC(=O)NCCCC[C@@H](C(=O)N[C@H]2CCC(=O)NCCCC[C@@H](C(=O)N[C@@H](CC(=O)O)C(=O)N[C@@H](Cc3ccccc3)C(=O)N[C@H](C(=O)N[C@H]3CCC(=O)NCCCC[C@@H](C(=O)N[C@H]4CCCCNC(=O)CC[C@@H](C(N)=O)NC(=O)[C@H]([C@@H](C)O)NC(=O)[C@H]([C@@H](C)CC)NC(=O)[C@H](CCCCN)NC4=O)NC(=O)[C@H]([C@@H](C)CC)NC(=O)[C@H](CC(C)C)NC(=O)[C@H](Cc4c[nH]c5ccccc45)NC3=O)[C@@H](C)CC)NC(=O)[C@H](C)NC(=O)[C@H](C)NC2=O)NC(=O)[C@H](CC(=O)O)NC(=O)[C@H](CC(C)C)NC(=O)[C@H]([C@@H](C)CC)NC1=O [Example 48]
3 | 103% | 0.02 nM | 95.2% | 0.2 nM | 103% | 0.501 nM | 61.9% | 100% | 63.6% | CCCC[C@@H]1NC(=O)[C@H](CCC(=O)O)NC(=O)[C@@H](NC(=O)[C@H](CO)NC(=O)[C@](C)(Cc2ccccc2F)NC(=O)[C@H](CO)NC(=O)[C@@H](C)NC(=O)[C@H](CC(=O)O)NC(=O)C(C)(C)NC(=O)[C@@H](N)Cc2c[nH]cn2)CCCCNC(=O)C[C@@H](C(=O)N[C@H](C(=O)N[C@@H](CC(C)C)C(=O)N[C@@H](CC(=O)O)C(=O)N[C@H]2CCC(=O)NCCCC[C@@H](C(=O)N[C@@H](CC(=O)O)C(=O)N[C@@H](Cc3ccccc3)C(=O)N[C@H](C(=O)N[C@H]3CCCCNC(=O)C[C@@H](C(=O)N[C@H]4CCC(=O)NCCCC[C@@H](C(N)=O)NC(=O)[C@H]([C@@H](C)O)NC(=O)[C@H]([C@@H](C)CC)NC(=O)[C@H](CCCCN)NC4=O)NC(=O)[C@H]([C@@H](C)CC)NC(=O)[C@H](CC(C)C)NC(=O)[C@H](Cc4c[nH]c5ccccc45)NC3=O)[C@@H](C)CC)NC(=O)[C@H](C)NC(=O)[C@H](C)NC(=O)[C@H](CCCCN)NC2=O)[C@@H](C)CC)NC(=O)[C@@H](Cc2ccccc2)NC1=O [Example 59] (H-H[Aib]D[dA]S[αMePhe(2-F)]SKE[Nle][dF]DILDEKAAKDFIKWLIDEKITK-NH2; lactam 8-12, 16-20, 24-28, 29-33 (inferred); C-terminus assumed)
4 | 102% | 0.0158 nM | 96.5% | 0.158 nM | 102% | 0.794 nM | 62.5% | 100% | 89.6% | CCCC[C@@H]1NC(=O)[C@H](CCC(=O)O)NC(=O)[C@@H](NC(=O)[C@H](CO)NC(=O)[C@](C)(Cc2ccccc2F)NC(=O)[C@H](CO)NC(=O)[C@@H](C)NC(=O)[C@H](CC(=O)O)NC(=O)C(C)(C)NC(=O)[C@@H](N)Cc2c[nH]cn2)CCCCNC(=O)C[C@@H](C(=O)N[C@@](C)(CC(C)C)C(=O)N[C@@H](CC(C)C)C(=O)N[C@@H](CC(=O)O)C(=O)N[C@H]2CCC(=O)NCCCC[C@@H](C(=O)N[C@@H](CC(=O)O)C(=O)N[C@@H](Cc3ccccc3)C(=O)N[C@H](C(=O)N[C@H]3CCCCNC(=O)C[C@@H](C(=O)N[C@H]4CCC(=O)NCCCC[C@@H](C(N)=O)NC(=O)[C@H]([C@@H](C)O)NC(=O)[C@H]([C@@H](C)CC)NC(=O)[C@H](CCCCN)NC4=O)NC(=O)[C@H]([C@@H](C)CC)NC(=O)[C@H](CC(C)C)NC(=O)[C@H](Cc4c[nH]c5ccccc45)NC3=O)[C@@H](C)CC)NC(=O)[C@H](C)NC(=O)[C@H](C)NC(=O)[C@H](CCCCN)NC2=O)NC(=O)[C@@H](Cc2ccccc2)NC1=O [Example 60] (H-H[Aib]D[dA]S[αMePhe(2-F)]SKE[Nle][dF]D[αMeL]LDEKAAKDFIKWLIDEKITK-NH2; lactam 8-12, 16-20, 24-28, 29-33 (inferred); C-terminus assumed)
